Test results published in patent publication US8927523B2, “Compound sea cucumber preparation and manufacturing method thereof” (Dalian Haiyantang Biology Co., Ltd., priority 2010, dated 2015).

Experiments:
[1] = test system: experimental diabetic mice caused by alloxan; test: Fasting plasma glucose of experimental diabetic mice caused by alloxan; assay type: in vivo; details: 200 mg/kg b.i.d. irrigating stomachs
Protocol: Take male, 18˜22 g Kunming variety mice, randomly take 10 mice from them as normal control group. Other mice are injected with alloxan 50 mg/kg after fasting (water is allowed) for 16 h, determine the fasting plasma glucose (FPG) fasting for 5 h after the mice are stable for 15 days, mice with FPG>10 mmol/L are high plasma glucose model mice.
10 mice for normal control group. Take 40 high plasma glucose mice, randomly divide into high plasma glucose model group, compound sea cucumber preparation high dosage (0.5 g/kg) group, compound sea cucumber preparation low dosage (0.25 g/kg) group and positive drug metformin 200 mg/kg group.
Mice of the compound sea cucumber preparation high dosage group and the compound sea cucumber preparation low dosage group are respectively treated with 0.025 g/ml and 0.0125 g/ml suspension of compound sea cucumber preparation and normal saline 0.2 mL/10 gBW by irrigating stomachs, mice of the metformin 200 mg/kg group are treated with […] metformin normal saline solution 0.2 mL/10 gBW by irrigating stomachs, while mice of the normal control group and high plasma glucose model group are treated with equal volume of normal saline by irrigating stomachs. Mice of each group are treated twice each day (b.i.d) continuously for 4 weeks.

[2] = test system: experimental diabetic mice caused by alloxan; test: Glucose tolerance of experimental diabetic mice caused by alloxan; assay type: in vivo; details: 200 mg/kg b.i.d.
Protocol: Building of mice high glucose model, animal grouping and treating ways are the same as above description.
[formula] wherein, C is the plasma glucose value (mmol/L), t is the time after glucose load (h), i is the glucose value number; C0, C1, C2, C3, C4 are respectively plasma glucose value of before glucose load (0 min) and 30 min, 60 min, 120 min and 240 min after glucose load.

[3] = test system: insulin resistance HepG2 cells; test: Glucose consumption of insulin resistance HepG2 cells (glucose oxidase method); assay type: cell-based, Human; details: 30 mg/L
Protocol: (§1) Human liver cancer cell line HepG2 provided by Dalian Medical University is vaccinated in a DMEM culture medium which contains 10% volume fraction of fetal calf serum (supplementing penicillin, streptomycin […] respectively), and the culture medium is placed in a 5% CO2 cell culture box at 37° C. […] Incubate for 8 h in culture box in the conditions of 37° C. and 5% CO2 to form monolayer anchorage-dependent cells. Wash the cells twice with DMEM culture solution without fetal calf serum, then incubate the cells for 16 h with 5×10^−7 mol·L^−1 insulin culture solution in culture box in the conditions of 37° C. and 5% CO2. The HepG2 cells incubated for 16 h with insulin culture solution are model cells. Count the prepared cell suspension, adjust the cell concentration to 5×10^4·ml^−1, vaccinate on 96-well cell culture plate, 8-well in duplicate for each group, total amount of 200 uL for each well. The experiment is divided into 5 groups: normal control group, insulin resistance model group, compound sea cucumber preparation high and low dosage groups and metformin positive control group. Except the normal control group, each other group is incubated for 16 h after adding insulin with ultimate concentration of 5×10^−7 mol·L^−1 into culture solution so as to form insulin resistance model. […]

[4] = test system: insulin resistance HepG2 cells; test: Glycerin consumption of insulin resistance HepG2 cells (GPO-POD enzyme method); assay type: cell-based, Human; details: 30 mg/L
Protocol: as §1

[5] = test system: insulin resistance HepG2 cells; test: Cell proliferation of insulin resistance HepG2 cells with MTT method; assay type: cell-based, Human; details: 30 mg/L
Protocol: Human liver cancer cell line HepG2 provided by Dalian Medical University is vaccinated in a DMEM culture medium which contains 10% volume fraction of fetal calf serum (supplementing penicillin, streptomycin 100 U·L^−1 respectively), and the culture medium is placed in a 5% CO2 cell culture box at 37° C.

[6] = vs high plasma glucose model group
[7] = 28th day, 2 g/kg glucose by abdomen injection
[8] = 24 h, compared with model group

CN(C)C(=N)N=C(N)N [Metformin, metformin] was tested, and the “Fasting Plasma Glucose (FPG) 7 days after treating” value ([1]; n=10) was 18.80 ± 2.77 mmol/L, the “Fasting Plasma Glucose (FPG) 14 days after treating” value ([1]; n=10) was 24.59 ± 4.17 mmol/L and the “Fasting Plasma Glucose (FPG) 21 days after treating” value ([1]; n=10) was 21.18 ± 3.12 mmol/L. The “Fasting Plasma Glucose (FPG) 28 days after treating” value ([1]; n=10) was 20.72 ± 3.03 mmol/L, the “Weight 28 days after treating” value ([1]; n=10) was 31.76 ± 1.74 g and the “FPG Reduce % 7 days after treating” value [1, 6] was 21.7%. For the same molecule, the “FPG Reduce % 14 days after treating” value [1, 6] was 17.1%, the “FPG Reduce % 21 days after treating” value [1, 6] was 29.5% and the “FPG Reduce % 28 days after treating” value [1, 6] was 31.3%. For the same molecule, the “Area under the glucose load curve (ADC, mmol · h/L)” value ([2]; 28th day, 0-240 min, trapezoid area method) was 106.05 ± 12.0 mmol·h/L, the “Plasma Glucose after glucose load 30 min” value [2, 7] was 31.68 ± 2.78 mmol/L and the “Plasma Glucose after glucose load 60 min” value [2, 7] was 31.19 ± 3.42 mmol/L. For the same molecule, the “Plasma Glucose after glucose load 120 min” value [2, 7] was 27.43 ± 4.37 mmol/L, the “Plasma Glucose after glucose load 240 min” value [2, 7] was 20.49 ± 2.58 mmol/L and the AUC reduce % ([2]; 28th day, vs high plasma glucose model group) was 18.2%. The “Fasting Plasma Glucose (FPG, mmol/L)” value ([2]; 28th treating day, before glucose load) was 20.72 ± 3.03 mmol/L, the “Glucose consumption increase %” value [3, 8] was 115.10% and the “Glucose consumption” value ([3]; 24 h after treating) was 2.83 ± 0.14 mmol/L. The “Glycerin consumption increase %” value [4, 8] was 165.97%, the “Glycerin consumption” value ([4]; 24 h after treating) was 0.39 ± 0.02 mmol/L and the Cell increase % [5] was 0.28%. The Cell survival % [5] was 100.28 ± 1.93Δ %.
